# Read-outs that look alike come from different tables or passages of the source.
# Legend:
# human OX1R = human OX1R (Homo sapiens (Human), UniProt O43613); test: Measurement of antagonistic activity against orexin receptors (intracellular calcium, CHOOX1R cells); assay type: cell-based; details: for antagonistic activity against human OX1 receptor (in words): summary of Table 6
# Procedure: (§1) The Chinese hamster ovary (CHO) cell lines CHOOX1R and CHOOX2R were established by modifying CHO cells to constantly express the NFAT-luciferase gene and either the human OX1R or human OX2R gene. Those cells were plated at 10,000 cells/well in 96-well multiplates with DMEM (manufactured by Sigma-Aldrich Co. LLC) supplemented with 5% FBS (manufactured by Thermo Scientific Inc.) and incubated at 37° C. and 5% CO2 for 48 hours. After removal of the medium, 100 μL of an assay buffer (20 mM HEPES (manufactured by Sigma-Aldrich Co. LLC), Hank's balanced salt solution (manufactured by Gibco), 0.1% BSA (manufactured by Sigma-Aldrich Co. LLC), 2.5 mM probenecid acid (manufactured by Wako Pure Chemical Industries, Ltd.), pH 7.4) containing 5 μM Fura-2AM (manufactured by Cayman Chemical Co.) was added to each well, and incubated at 37° C. and 5% CO2 for 60 minutes. After removal of the buffer containing Fura-2AM, 75 μL of the assay buffer was added to each well. Then, […] of the assay buffer containing a test compound at various concentrations and OX-A (manufactured by Peptide Institute, Inc.) was added to start the reaction. The change in intracellular calcium ion concentration induced by the reaction was evaluated by the ratio of fluorescent intensities, which were measured at a wavelength of 510 nm based on the two wavelength excitation approach using FDSS 7000 (manufactured by Hamamatsu Photonics K.K.) with fluorescence excitation at 340 nm and 380 nm. A concentration-response curve on the antagonistic activity was plotted from the values of maximal fluorescent intensity ratio determined when various concentrations of a test compound were added in the presence of […] of OX-A, where a value of maximal fluorescent intensity ratio determined by adding 300 pM of OX-A alone corresponds to 100% and a value of maximal fluorescent intensity ratio determined by adding the assay buffer alone corresponds to 0%. Based on the resulting non-linear regression curve, the 50% maximal inhibitory concentration (IC50) was calculated. Each test compound was dissolved in DMSO to a concentration of 10 mM (the final concentration of DMSO was 1%), and then diluted with the assay buffer to give a final concentration of 3.0×10^−10 M to 1.0×10^−5 M (a common ratio of 3), while OX-A was diluted to a final concentration of 300 pM. The experiment was performed in quadruplicate plates, and the results of the four independent measurements were averaged to give the value of each reaction, and then the IC50 of a sample was calculated. If the sample number was 2 or more, the averaged IC50 was used.
# human OX2R = human OX2R (Homo sapiens (Human), UniProt O43614); test: Measurement of antagonistic activity against orexin receptors (intracellular calcium, CHOOX2R cells); assay type: cell-based
# human OX2R, sequence (O43614 whole entry): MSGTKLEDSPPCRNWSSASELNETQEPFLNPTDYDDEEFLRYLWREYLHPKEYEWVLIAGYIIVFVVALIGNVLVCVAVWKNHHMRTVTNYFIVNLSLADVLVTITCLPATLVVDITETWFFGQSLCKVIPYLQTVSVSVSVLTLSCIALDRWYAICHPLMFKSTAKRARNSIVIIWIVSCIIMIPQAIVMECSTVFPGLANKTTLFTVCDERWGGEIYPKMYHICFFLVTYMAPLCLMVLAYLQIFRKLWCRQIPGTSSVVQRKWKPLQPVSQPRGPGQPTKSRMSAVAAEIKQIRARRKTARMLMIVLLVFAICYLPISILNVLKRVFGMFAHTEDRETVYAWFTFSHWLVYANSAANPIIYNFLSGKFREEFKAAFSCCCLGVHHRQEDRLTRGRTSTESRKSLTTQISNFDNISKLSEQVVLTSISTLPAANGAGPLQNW
# Procedure: as §1
# [1] = CHOOX1R cells, 300 pM OX-A, Fura-2 calcium, read-out: OX1 (IC50)
# [2] = CHOOX2R cells, 300 pM OX-A, Fura-2 calcium, read-out: OX2 (IC50)
# human OX1R, sequence (O43613 whole entry): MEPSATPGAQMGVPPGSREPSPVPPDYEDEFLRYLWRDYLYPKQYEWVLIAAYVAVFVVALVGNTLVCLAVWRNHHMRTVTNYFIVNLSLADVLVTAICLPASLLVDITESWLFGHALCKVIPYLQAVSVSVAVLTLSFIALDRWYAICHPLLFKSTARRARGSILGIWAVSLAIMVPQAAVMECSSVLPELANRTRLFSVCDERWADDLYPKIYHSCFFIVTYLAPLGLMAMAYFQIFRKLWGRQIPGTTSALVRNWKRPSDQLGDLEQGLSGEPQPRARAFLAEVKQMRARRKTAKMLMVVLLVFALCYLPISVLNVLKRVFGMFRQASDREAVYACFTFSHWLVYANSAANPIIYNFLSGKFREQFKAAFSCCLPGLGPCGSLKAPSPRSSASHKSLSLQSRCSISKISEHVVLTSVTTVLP
Structure (SMILES),IC50 (human OX1R; [1]),antagonistic activity against human OX1 receptor (in words) (human OX1R),IC50 (human OX2R; [2]),IC50 (human OX1R),IC50 (human OX2R)
"CN(C(=O)/C=C/c1ccoc1)[C@@H]1CC[C@@]2(O)[C@H]3Cc4ccc(O)c5c4[C@@]2(CCN3CC2CC2)[C@H]1O5.Cl [Comparative Example 1, (E)-N-[(4R,4aS,7R,7aR,12bS)-3-(cyclopropylmethyl)-4a,9-dihydroxy-2,3,4,4a,5,6,7,7a-octahydro-1H-4,12-methanobenzofuro[3,2-e]isoquinolin-7-yl]-3-(furan-3-yl)-N-methylacrylamide hydrochloride, reference compound]",1.65 µM,very weak antagonistic activity,> 10 µM,,
"COc1ccc2c3c1O[C@H]1[C@H](N(C)Cc4ccccc4)CC[C@@]4(O)[C@@H](C2)N(C(=O)OC(C)(C)C)CC[C@]314 [Comparative Example 2, tert-butyl(4R,4aS,7R,7aR,12bS)-7-[benzyl(methyl)amino]-4a-hydroxy-9-methoxy-1,2,4,4a,5,6,7,7a-octahydro-3H-4,12-methanobenzofuro[3,2-e]isoquinolin-3-carboxylate, reference compound]",2.85 µM,very weak antagonistic activity,> 10 µM,,
"COc1ccc2c3c1O[C@H]1[C@H](N(C)C(=O)/C=C/c4ccoc4)CC[C@@]4(O)[C@@H](C2)N(S(=O)(=O)c2ccccc2)CC[C@]314 [Example 1, (E)-3-(furan-3-yl)-N-[(4R,4aS,7R,7aR,12bS)-4a-hydroxy-9-methoxy-3-(phenylsulfonyl)-2,3,4,4a,5,6,7,7a-octahydro-1H-4,12-methanobenzofuro[3,2-e]isoquinolin-7-yl]-N-methylacrylamide]",,potent and selective antagonistic activity,,0.0828 µM,> 10 µM
COc1ccc2c3c1O[C@H]1[C@H](N(C)C(=O)/C=C/c4ccoc4)CC[C@@]4(O)[C@@H](C2)N(S(=O)(=O)c2ccccc2C)CC[C@]314 [Example 2],0.03 µM,potent and selective antagonistic activity,> 10 µM,,
COc1ccc2c3c1O[C@H]1[C@H](N(C)C(=O)/C=C/c4ccoc4)CC[C@@]4(O)[C@@H](C2)N(S(=O)(=O)c2cccc(C)c2)CC[C@]314 [Example 3],0.024 µM,potent and selective antagonistic activity,> 10 µM,,
COc1ccc2c3c1O[C@H]1[C@H](N(C)C(=O)/C=C/c4ccoc4)CC[C@@]4(O)[C@@H](C2)N(S(=O)(=O)c2ccc(C)cc2)CC[C@]314 [Example 4],0.162 µM,potent and selective antagonistic activity,> 10 µM,,
COc1ccc2c3c1O[C@H]1[C@H](N(C)C(=O)/C=C/c4ccoc4)CC[C@@]4(O)[C@@H](C2)N(S(=O)(=O)c2ccccc2C(F)(F)F)CC[C@]314 [Example 5],0.419 µM,potent and selective antagonistic activity,> 10 µM,,
COc1ccc2c3c1O[C@H]1[C@H](N(C)C(=O)/C=C/c4ccoc4)CC[C@@]4(O)[C@@H](C2)N(S(=O)(=O)c2ccccc2[N+](=O)[O-])CC[C@]314 [Example 8],0.144 µM,potent and selective antagonistic activity,> 10 µM,,
COc1ccc2c3c1O[C@H]1[C@H](N(C)C(=O)/C=C/c4ccoc4)CC[C@@]4(O)[C@@H](C2)N(S(=O)(=O)c2ccccc2C#N)CC[C@]314 [Example 11],0.0491 µM,potent and selective antagonistic activity,> 10 µM,,
COc1ccc2c3c1O[C@H]1[C@H](N(C)C(=O)/C=C/c4ccoc4)CC[C@@]4(O)[C@@H](C2)N(S(=O)(=O)c2cccc(F)c2)CC[C@]314 [Example 15],0.112 µM,potent and selective antagonistic activity,> 10 µM,,
COc1ccc2c3c1O[C@H]1[C@H](N(C)C(=O)/C=C/c4ccoc4)CC[C@@]4(O)[C@@H](C2)N(S(=O)(=O)c2cccc(Cl)c2)CC[C@]314 [Example 18],0.195 µM,potent and selective antagonistic activity,> 10 µM,,
COc1ccc2c3c1O[C@H]1[C@H](N(C)C(=O)/C=C/c4ccoc4)CC[C@@]4(O)[C@@H](C2)N(S(=O)(=O)c2ccccc2Br)CC[C@]314 [Example 20],0.0562 µM,potent and selective antagonistic activity,> 10 µM,,
COc1ccc2c3c1O[C@H]1[C@H](N(C)C(=O)/C=C/c4ccoc4)CC[C@@]4(O)[C@@H](C2)N(S(=O)(=O)c2cccc(Br)c2)CC[C@]314 [Example 21],0.2 µM,potent and selective antagonistic activity,> 10 µM,,
COc1ccc2c3c1O[C@H]1[C@H](N(C)C(=O)/C=C/c4ccoc4)CC[C@@]4(O)[C@@H](C2)N(S(=O)(=O)c2c(C)cc(C)cc2C)CC[C@]314 [Example 23],0.121 µM,potent and selective antagonistic activity,> 10 µM,,
COc1ccc2c3c1O[C@H]1[C@H](N(C)C(=O)/C=C/c4ccoc4)CC[C@@]4(O)[C@@H](C2)N(S(=O)(=O)c2cccc5cccnc25)CC[C@]314 [Example 25],0.198 µM,potent and selective antagonistic activity,> 10 µM,,
CCCCS(=O)(=O)N1CC[C@]23c4c5ccc(OC)c4O[C@H]2[C@H](N(C)C(=O)/C=C/c2ccoc2)CC[C@@]3(O)[C@H]1C5 [Example 27],0.0878 µM,potent and selective antagonistic activity,> 10 µM,,
COc1ccc2c3c1O[C@H]1[C@H](N(C)C(=O)/C=C/c4ccoc4)CC[C@@]4(O)[C@@H](C2)N(S(=O)(=O)C2CC2)CC[C@]314 [Example 28],0.101 µM,potent and selective antagonistic activity,> 10 µM,,
COc1ccc2c3c1O[C@H]1[C@H](N(C)C(=O)/C=C/c4ccoc4)CC[C@@]4(O)[C@@H](C2)N(S(=O)(=O)c2ccc(N(C)C)cc2)CC[C@]314.Cl [Example 32],0.0117 µM,potent and selective antagonistic activity,> 10 µM,,
COc1ccc2c3c1O[C@H]1[C@H](N(C)C(=O)/C=C/c4ccoc4)CC[C@@]4(O)[C@@H](C2)N(C(=O)C2CC2)CC[C@]314 [Example 34],0.259 µM,potent and selective antagonistic activity,> 10 µM,,
COc1ccc2c3c1O[C@H]1[C@H](N(C)C(=O)/C=C/c4ccoc4)CC[C@@]4(O)[C@@H](C2)N(C(=O)c2ccc(C)cc2)CC[C@]314 [Example 35],0.571 µM,potent and selective antagonistic activity,> 10 µM,,
"COc1ccc2c3c1O[C@H]1[C@H](N(C)C(=O)C=Cc4ccccc4)CC[C@@]4(O)[C@@H](C2)N(S(=O)(=O)c2ccccc2)CC[C@]314 [Example 38, N-[(4R,4aS,7R,7aR,12bS)-4a-hydroxy-9-methoxy-3-(phenylsulfonyl)-2,3,4,4a,5,6,7,7a-octahydro-1H-4,12-methanobenzofuro[3,2-e]isoquinolin-7-yl]-N-methylcinnamide]",0.128 µM,potent and selective antagonistic activity,> 10 µM,,
COc1ccc2c3c1O[C@H]1[C@H](N(C)C(=O)Nc4ccccc4)CC[C@@]4(O)[C@@H](C2)N(S(=O)(=O)c2ccccc2)CC[C@]314 [Example 41],0.159 µM,potent and selective antagonistic activity,> 10 µM,,
COc1ccc2c3c1O[C@H]1[C@H](N(C)C(=O)NCc4ccccc4)CC[C@@]4(O)[C@@H](C2)N(S(=O)(=O)c2ccccc2)CC[C@]314 [Example 42],0.688 µM,potent and selective antagonistic activity,> 10 µM,,
